Results: US20050153872A1, “Methods and compositions for the treatment of infection” (priority 2004, published 2005)
In brackets after ≈: the same amount, converted by molar mass. Read-outs that look alike come from different tables or passages of the source.

Columns and labels:
[1] = system: Acenetobactor (20); test: In vitro antibacterial activity (MIC), clinical isolates; format: cell-based
Procedure: (§1) The following experiments were performed by Lab. of Pharmacology, National Sichuan antibiotic industril institute, Chengdu, Sichuan.
(§2) The following agents were used to test the in vitro activity of Ph-SA:
(§3) All the bacterial strains used in the experiments were clinical isolates collected from Sichuan and Beijing in 2002 and identified by West China Hospital, Sichuan University and Chongqing University of Medical Sciences with API system. The following strains were used in the experiments detailed below: Staphylococcus aureus 168 strains (MRSA 80 strains and MSSA 88 strains) Staphylococcus epidermidis 46 strains (MRSE 25 strains and MSSE 21 strains), Enterococcus 20 strains, and Acenetobactor 20 strains. Staphylococcus aureus ATCC25923, 29213 and BAA-42 were used as control strains. Bacterial strains were contacted with one of the above described compounds and MIC50, MIC90 and MICScope were determined.

[2] = system: Enterococcus (20); test: as above; format: cell-based; conditions: 20 Enterococcus clinical isolates
Procedure: as §1, §2, §3

[3] = system: Staphylococcus aureus MRSA strain (80); test: as above; format: cell-based; conditions: Staphylococcus aureus, MRSA
Procedure: as §1, §2, §3

[4] = system: Staphylococcus aureus MSSA strain (88); test: as above; format: cell-based; conditions: Staphylococcus aureus, 88 MSSA clinical isolates
Procedure: as §1, §2, §3

[5] = system: Staphylococcus epidermidis MRSE strain (25); test: as above; format: cell-based; conditions: Staphylococcus epidermidis, MRSE
Procedure: as §1, §2, §3

[6] = system: Staphylococcus epidermidis MSSE strain (21); test: as above; format: cell-based; conditions: Staphylococcus epidermidis, 21 MSSE clinical isolates
Procedure: as §1, §2, §3

[7] = system: Enterococcus faecalis ATCC 700802; test: microbe, parasite or virus in culture; format: cell-based; conditions: ATCC700802; Enterococcus faecalis ATCC 700802; read-out: MIC
[8] = system: Enterococcus faecalis ATCC 700802; test: In vivo protection of infected mice; parameters: species or system Kungming mice; conditions: Enterococcus faecalis
Procedure: (§4) The following experiments were performed by Pharmacology Lab, National Sichuan antibiotic industril institute, Chengdu, Sichuan.
(§5) The agents described above were diluted with sterilized water to final concentrations of 10 mg/L, 5 mg/Land 2.5 mg/L.
(§6) Staphylococcus aureus ATCC BAA-42(MRSA) and enterococcus faecalis ATCC 700802 were used as control strains.
(§7) 170 mice (Kungming mice: 18˜22 g, 85 males and 85 females) were randomly divided into four groups and injected with a fatal dosage of staphylococci, enterococcus and E. coli intraperitoneally. […] Mice were inspected every 24 hours for 7-14 days. Dead mice were counted as positive results. The results are depicted in Table 3 and FIGS. 4 and 5A-B.

[9] = system: Staphylococcus aureus MRSA 02-18; test: In vivo protection of infected mice; parameters: species or system Kungming mice; conditions: Staphylococcus aureus, MRSA
Procedure: as §4, §5, §6, §7

[10] = system: Staphylococcus aureus MRSA BAA-42; test: In vivo protection of infected mice; parameters: species or system Kungming mice; conditions: Staphylococcus aureus
Procedure: as §4, §5, §6, §7

[11] = system: Staphylococcus aureus MRSA BAA-42; test: microbe, parasite or virus in culture; format: cell-based; conditions: Staphylococcus aureus MRSA BAA-42; read-out: MIC
[12] = system: Staphylococcus aureus MRSA 02-18; test: microbe, parasite or virus in culture; format: cell-based; conditions: Staphylococcus aureus MRSA 02-18; read-out: MIC
[13] = system: Staphylococcus aureus ATCC 29213; test: MIC against challenge strain (Table 3); format: cell-based; conditions: ATCC29213, read-out: MIC
[14] = system: Escherichia coli 02-1-65; test: In vivo protection of infected mice; parameters: species or system Kungming mice; conditions: i.p. infection 3.3 × 10^5 cfu/ml, read-out: ED50
Procedure: as §4
(§8) The agents described above were diluted with sterilized water to final concentrations of 10 mg/L, 5 mg/Land 2.5 mg/L. […]
as §7

[15] = system: Staphylococcus aureus ATCC 29213; test: In vivo protection of infected mice; parameters: species or system Kungming mice; conditions: Staphylococcus aureus, i.p. infection 3.6 × 10^5 cfu/ml, read-out: ED50
Procedure: as §4, §8, §7

[16] = system: Escherichia coli 02-1-65; test: MIC against challenge strain (Table 3); format: cell-based; conditions: 02165, read-out: MIC
[17] = system: ATCC 700802 VRE cells; test: Ph-EF protection of ATCC 700802 infected mice; format: in vivo; conditions: for Death distribution in hours 24 h / Death distribution in hours 48 h / Death distribution in hours 72 h / Death distribution in hours 96 h / Death distribution in hours 120 h / Death distribution in hours 144 h / Death distribution in hours 168 h / Number of Death: 5 animals
Procedure: To assess in vivo effects of Ph-EF, mice were injected with a fatal dosage of ATCC 700802 VRE cells intraperitoneally. […] Mice were inspected every 24 hours for 7-14 days. Dead mice would be counted as positive results.

[18] = system: ATCC 700802 VRE cells; test: Electron micrographs of bactericidal effects of Ph-EF; format: cell-based, Enterococcus; conditions: Ph-EF 10 ug/ml 0.5 and 2 hr; Ph-SA 10 ug/ml 2 hr; vancomycin 20 ug/ml 2 hr
Procedure: Electron Microraphs of Bactericidal Effects of Ph-EF Against ATCC 700802 VRE Cells (1% Phosphotungstic Acid, 15.000×).
Bactericidal effects of ph-EF were tested and monitored by electron microscopy. FIG. 16 depicts electron micrographs of (a) untreated cells; (b) and (c) cells treated with Ph-EF (10 ug/ml) for 0.5 hr; (d) untreated cells for 2 hr; (e) cells treated by Ph-SA (10 ug/ml) for 2 hr; (f) cells treated with vancomycin (20 ug/ml) for 2 hr; (g) and (h) cells treated with Ph-EF (10 ug/ml) for 2 hrs.

[19] = system: Vancomycin-resistant Enterococcus ATCC 700802; conditions: for inhibition of VRE cell growth: 10 ug/ml, ATCC 700802
[20] = system: vancomycin-sensitive Enterococcus ATCC29212; conditions: 3 ug/ml; ATCC 29212 cells

Molecule: CN[C@H](CC(C)C)C(=O)N[C@H]1C(=O)N[C@@H](CC(N)=O)C(=O)N[C@H]2C(=O)N[C@H]3C(=O)N[C@H](C(=O)N[C@H](C(=O)O)c4cc(O)cc(O)c4-c4cc3ccc4O)[C@H](O)c3ccc(c(Cl)c3)Oc3cc2cc(c3O[C@@H]2O[C@H](CO)[C@@H](O)[C@H](O)[C@H]2O[C@H]2C[C@](C)(N)[C@H](O)[C@H](C)O2)Oc2ccc(cc2Cl)[C@H]1O [Vancomycin]
- MIC50 [1]: > 128 µg/mL
- MIC90 [1]: > 128 µg/mL
- MIC [2]: 0.5 to 50 µg/mL (≈ 0.345 to 34.5 µM)
- MIC50 ([2]; read-out: MIC50): 1 µg/mL (≈ 0.69 µM)
- MIC90 ([2]; read-out: MIC90): 2 µg/mL (≈ 1.38 µM)
- MIC50 [3]: 0.25 µg/mL (≈ 0.173 µM)
- MIC90 [3]: 1 µg/mL (≈ 0.69 µM)
- MIC ([3]; read-out: MIC Scope): 0.004 to 2 µg/mL (≈ 0.00276 to 1.38 µM)
- MIC50 ([4]; read-out: MIC50): 0.5 µg/mL (≈ 0.345 µM)
- MIC90 ([4]; read-out: MIC90): 1 µg/mL (≈ 0.69 µM)
- MIC ([4]; read-out: MIC Scope): 0.03 to 1 µg/mL (≈ 0.0207 to 0.69 µM)
- MIC50 [5]: 0.5 µg/mL (≈ 0.345 µM)
- MIC90 [5]: 1 µg/mL (≈ 0.69 µM)
- MIC ([5]; read-out: MIC Scope): 0.25 to 2 µg/mL (≈ 0.173 to 1.38 µM)
- MIC [6]: 0.06 to 0.5 µg/mL (≈ 0.0414 to 0.345 µM)
- MIC50 ([6]; read-out: MIC50): 0.5 µg/mL (≈ 0.345 µM)
- MIC90 ([6]; read-out: MIC90): 0.5 µg/mL (≈ 0.345 µM)
- MIC [7]: 16 µg/mL (≈ 11 µM)
- ED50 ([8]; ATCC700802): 2.64 mg/kg
- ED50 ([8]; ATCC700802, 1 h): 3.17 mg/kg
- ED50 [9]: 2.39 mg/kg
- ED50 ([9]; 1 h): 2.27 mg/kg
- ED50 [10]: 3.53 mg/kg
- ED50 ([10]; 1 h): 3.64 mg/kg
- MIC [11]: 0.06 µg/mL (≈ 0.0414 µM)
- MIC [12]: 0.06 µg/mL (≈ 0.0414 µM)
- MIC [13]: 0.5 µg/mL (≈ 0.345 µM)
- ED50 ([14]; Escherichia coli, 02165, 2nd Time (value in parentheses), i.v. treatment): > 30.8 mg/kg
- ED50 ([14]; Escherichia coli, 02165, 1 h, 1st Time, i.v. treatment after one hour): > 30.8 mg/kg
- ED50 ([15]; ATCC29213, 2nd Time (value in parentheses), i.v. treatment): 2.09 mg/kg
- ED50 ([15]; ATCC29213, 1 h, 1st Time, i.v. treatment after one hour): 2.32 mg/kg
- MIC [16]: 128 µg/mL (≈ 88.3 µM)
- Death distribution in hours 24 h ([17]; 5 mg/kg intravenously): 3
- Death distribution in hours 48 h ([17]; 5 mg/kg intravenously): 2
- Death distribution in hours 72 h ([17]; 5 mg/kg intravenously): 1
- Death distribution in hours 96 h ([17]; 5 mg/kg intravenously): 0
- Death distribution in hours 120 h ([17]; 5 mg/kg intravenously): 0
- Death distribution in hours 144 h ([17]; 5 mg/kg intravenously): 0
- Death distribution in hours 168 h ([17]; 5 mg/kg intravenously): 0
- Number of Death ([17]; 5 mg/kg intravenously): 3
- Death distribution in hours 24 h ([17]; 10 mg/kg intravenously): 1
- Death distribution in hours 48 h ([17]; 10 mg/kg intravenously): 1
- Death distribution in hours 72 h ([17]; 10 mg/kg intravenously): 0
- Death distribution in hours 96 h ([17]; 10 mg/kg intravenously): 0
- Death distribution in hours 120 h ([17]; 10 mg/kg intravenously): 0
- Death distribution in hours 144 h ([17]; 10 mg/kg intravenously): 0
- Death distribution in hours 168 h ([17]; 10 mg/kg intravenously): 0
- Number of Death ([17]; 10 mg/kg intravenously): 1
- morphological alteration in VRE cells (electron micrographs) [18]: no morphological alteration
- inhibition of VRE cell growth [19]: only partially inhibited VRE cell growth

B1: Ph-EF: Colicin Ia linked to the N-terminus of the E. facaelis pheromone cCF10 (protein)
chain: SDPVARGITNPGAESLGYDSDGHEIMAVASPIYVASNPPRVASPVFHGTPPAWSSFGNKTIWGGNEWVASPDSPTRSDIEKRDKEITAYKNTLSAQQKENENKRTEAGKRLSAAIAAREKDENTLKTLRAGNADAADITRQEFRLLQAELREYGFRTEIAGYDALRLHTESRMLFADADSLRISPREARSLIEQAEKRQKDAQNADKKAADMLAEYERRKGILDTRLSELEKNGGAALAVLDAQQARLLGQQTRNDRAISEARNKLSSVTESLNTARNALTRAEQQLTQQKNTPDGKTIVSPEKFPGRSSTNHSIVVSGDPRFAGTIKITTSAVIDNRANLNYLLSHSGLDYKRNILNDRNPVVTEDVEGDKKIYNAEVALAEWDKLRQRLLDARNKITSAESAVASNSARNNLSARTNEQKHANDALNALLKEKENIRNQLSGINQKIAEEKRKQDELKATKDAINFTTEFLKSVSEKYGAKAEQLAREMAGQAKGKKIRNVEEALKTYEKYRADINKKINAKDRAAIAAALESVKLSDISSNLNRFSRGLGYAGKFTSLADWITEFGKAVARGTENWRPLFVKTETIIAGNAATALVALALVFSILTGSALGIIGYGLLMAVTGALIDESLVEKANKFWGILVTLVFV
modifications: Colicin Ia linked to E. facaelis pheromone cCF10
- Death distribution in hours 24 h ([17]; 5 mg/kg intravenously): 0
- Death distribution in hours 48 h ([17]; 5 mg/kg intravenously): 1
- Death distribution in hours 72 h ([17]; 5 mg/kg intravenously): 0
- Death distribution in hours 96 h ([17]; 5 mg/kg intravenously): 0
- Death distribution in hours 120 h ([17]; 5 mg/kg intravenously): 0
- Death distribution in hours 144 h ([17]; 5 mg/kg intravenously): 0
- Death distribution in hours 168 h ([17]; 5 mg/kg intravenously): 0
- Number of Death ([17]; 5 mg/kg intravenously): 1
- Death distribution in hours 24 h ([17]; 10 mg/kg intravenously): 0
- Death distribution in hours 48 h ([17]; 10 mg/kg intravenously): 0
- Death distribution in hours 72 h ([17]; 10 mg/kg intravenously): 0
- Death distribution in hours 96 h ([17]; 10 mg/kg intravenously): 0
- Death distribution in hours 120 h ([17]; 10 mg/kg intravenously): 0
- Death distribution in hours 144 h ([17]; 10 mg/kg intravenously): 0
- Death distribution in hours 168 h ([17]; 10 mg/kg intravenously): 0
- Number of Death ([17]; 10 mg/kg intravenously): 0
- protection against infection in mice ([17]; ATCC 700802 VRE i.p., agent i.v.): effectively prevent Enterococcus infection in mice
- morphological alteration in VRE cells (electron micrographs) [18]: substantial morphological alteration
- inhibition of cell growth [20]: inhibited cell growth
- inhibition of VRE cell growth [19]: effectively inhibited VRE cell growth
- bactericidal effect relative to vancomycin on a molar basis ([19]; Ph-EF 70,000 daltons vs vancomycin 1456 daltons): almost one hundred times greater
